Experiments:
Experiment in all cases: Cell proliferation (cell count by microscopy), Example 2
Type in all cases: cell-based
HCT-116 = conditions: Homo sapiens; HCT-116, single agent, 72 h, cell count relative to DMSO
Procedure: (§1) COMPOUNDS A and B were dissolved in 100% DMSO (Sigma, Catalog number D2650) at concentrations of 20 mM and stored at −20° C. until use. Compounds were arrayed in drug master plates (Greiner, Catalog number 788876) and serially diluted 3-fold (7 steps) at 2000× concentration.
(§2) To test the effect of the combination of COMPOUND A and COMPOUND B on cell proliferation cells were plated in black 384-well microplates with clear bottom (Matrix/Thermo Scientific, Catalog number 4332) in 50 μL media per well at cell densities between 500 and 1250 cells/well (Table 1) and allowed to incubate at 37 degrees, 5% CO2 for 24 h. After 24 h one 384-well plate per cell line was prepared for cell counting by microscopy (see below) without receiving treatment (=‘baseline’). The other cell plates were treated by transferring 25 nL of the 2000× compound from drug master plates using an ATS acoustic liquid dispenser (ECD Biosystems) and resulting in a final 1× concentration. COMPOUND A was used over a final concentration range of 13 nM-10 μM, and COMPOUND B was used over a final concentration range of 13 nM-10 μM (7 1:3 dilution steps). For the combination of COMPOUND A with COMPOUND B the single agents were combined at a fixed ratio of 1:1 at each dilution resulting in 7 combination treatments. […] After compound addition 50 nL of 2 mM CellEvent Caspase-3/7 Green Detection Reagent (ThermoFisher, Catalog number C10423) were added to one of the three replicates using the HP D300 Digital Dispenser (Tecan). Caspase 3/7 induction was measured as a proxy for apoptosis induced by the treatments. Cells were treated for 72 h to 96 h depending on their doubling time (Table 1), and Caspase 3/7 activation was measured every 24 h by microscopy using an InCell Analyzer 2000 (GE Healthcare) equipped with a 4× objective and FITC excitation/emission filters. At the end of the treatment cells were prepared for cell counting by microscopy. Cells were fixed and permeabilised for 45 minutes in 4% PFA (Electron Microscopy Sciences, Catalog number 15714), 0.12% TX-100 (Electron Microscopy Sciences, Catalog number 22140) in PBS (Boston Bioproducts, Catalog number BM-220). After washing cells three times with PBS their DNA was stained for 30 minutes with Hoechst 33342 (ThermoFisher, Catalog number H3570) at a final concentration of 4 μg/mL. Cells were washed three times with PBS and then plates were heat-sealed using a PlateLoc (Agilent Technologies) with aluminum seals (Agilent Technologies, Catalog number 06644-001) and stored at 4° C. until imaging. All cells per well/treatment were captured in a single image by fluorescence microscopy using an InCell Analyzer 2000 (GE Healthcare) equipped with a 4× objective and DAPI excitation/emission filters.
(§3) Images were analyzed after adapting previously described methods (Horn, Sandmann et al. 2011, Nat. Methods 8(4): 341-346) and using the Bioconductor package EBImage in R (Pau, Fuchs et al. 2010, Bioinformatics 26(7):979-981). Objects in both channels, DAPI (for Hoechst/DNA) and FITC (for Caspase 3/7), were segmented separately by adaptive thresholding and counted. A threshold for Caspase 3/7 positive objects was defined manually per cell line after comparing negative controls (DMSO) and positive controls (Staurosporine). By analyzing 17 additional object/nuclei features in the DNA channel (shape and intensity features) debris/fragmented nuclei were identified. To this end per cell line the distributions of the additional features between positive controls (Staurosporine) and negative controls (DMSO) were compared manually. Features that could differentiate between the conditions (e.g. a shift in the distribution of a feature measurement comparing DMSO with Staurosporine) where used to define the ‘debris’ population versus the population of ‘viable’ nuclei. The debris counts were subtracted from raw nuclei counts. The resulting nuclei number was used as measure of cell proliferation (‘cell count’). […]

LoVo = conditions: Homo sapiens, single agent, 96 h, cell count relative to DMSO
Procedure: as §1, §2, §3

LS-180 = conditions: Homo sapiens, LS180; LS-160 (so in the source), single agent, 72 h, cell count relative to DMSO
Procedure: as §1, §2, §3

RKO = conditions: Homo sapiens, single agent, 72 h, cell count relative to DMSO
Procedure: as §1, §2, §3

GP2d = conditions: single agent, 72 h, cell count relative to DMSO, unit from text b187 (micromolar, top dose 10 μM)
Procedure: as §1, §2, §3

IC50 (HCT-116) | IC50 (LoVo) | Compound | IC50 (LS-180) | IC50 (RKO) | IC50 (GP2d)
9800 nM | > 10000 nM | Cc1nc(NC(=O)N2CCC[C@H]2C(N)=O)sc1-c1ccnc(C(C)(C)C(F)(F)F)c1 [COMPOUND A, (S)-Pyrrolidine-1,2-dicarboxylic acid 2-amide 1-({4-methyl-5-[2-(2,2,2-trifluoro-1,1-dimethyl-ethyl)-pyridin-4-yl]-thiazol-2-yl}-amide)] | > 10000 nM | 3900 nM | 500 nM
100 nM | 600 nM | COc1cc2c(cc1OC(C)C)[C@H](c1ccc(Cl)cc1)N(c1ccc(N(C)C[C@H]3CC[C@H](N4CCN(C)C(=O)C4)CC3)cc1)C(=O)C2 [COMPOUND B, (S)-1-(4-Chloro-phenyl)-7-isopropoxy-6-methoxy-2-(4-{methyl-[4-(4-methyl-3-oxo-piperazin-1-yl)-trans-cyclohexylmethyl]-amino}-phenyl)-1,4-dihydro-2H-isoquinolin-3-one] | 700 nM | 1200 nM | 800 nM

— patent publication US20180318275A1, “COMBINATION THERAPY USING PI3K INHIBITOR AND MDM2 INHIBITOR” (Novartis AG, priority 2015, published 2018)
